Experimental data taken from PMC8705818, “Experimental Characterization of the Interaction between the N-Terminal SH3 Domain of Crkl and C3G” (International Journal of Molecular Sciences, 2021).
Peptide text beside a SMILES is read from it. * marks the point of attachment. Dansyl = CN(C)c1cccc2c(S(=O)(=O)*)cccc12

Target: T1, N-SH3 domain of Crkl (WT) (Homo sapiens, UniProt P46109)
T1 construct: The construct encoding the N-SH3 domain of Crkl was subcloned in a pET28b+ plasmid vector; His-tag; made in house; host or cells: E. coli BL21
T1 sequence (P46109 123-183 limits assumed): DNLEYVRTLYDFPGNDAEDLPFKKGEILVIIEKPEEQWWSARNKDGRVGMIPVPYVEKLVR
Test: Stopped-flow kinetic binding, N-SH3 WT versus C3G277–296
Settings: 10 °C
Excerpt: In order to characterize the binding reaction between the N-SH3 domain of Crkl and C3G, we conducted kinetic binding experiments with a stopped-flow apparatus, by rapidly mixing the N-SH3 domain versus the C3G277–296 peptide, the latter covalently linked with a dansyl group at its N-terminus (Dansyl-[…]). This modification allowed us to monitor the binding reaction by following the change of Förster resonance energy transfer (FRET) signal upon binding, which generates from the two naturally present tryptophan residues in the N-SH3 domain in position 164 and 165 (donor) and the dansyl group linked to the peptide (acceptor).
To characterize the binding between N-SH3 and the C3G277–296 peptide, we resorted to carry out pre-steady state rapid mixing stopped-flow experiments. In these types of experiments, a common practice lies in performing the kinetic analysis under the so-called pseudo-first-order conditions, i.e., a condition in which one of the two reactants is held at a much higher concentration than the other. In practice, in many cases, it is extremely difficult to achieve such conditions. This is particularly true in cases in which the observed rate constants are so high to approach the experimental limitations of the stopped-flow apparatus. Accordingly, as described below, the analysis of the binding data must be performed by applying the analytical solution of the bimolecular binding transition.
We rapidly mixed a constant concentration of C3G277–296 peptide (0.5 µM) versus increasing concentrations of N-SH3 (ranging from 0.5 to 5 µM) and the observed rate constants (kobs) obtained at different ionic strength conditions (buffer Hepes 50 mM, pH 7.0, 0.15 M, 0.3 M, 0.5 M and 1 M NaCl) were plotted as function of concentration of N-SH3 and fitted with a linear equation (Figure 1). By following previously derived equations [19, 20], the dependence of kobs as function of [N-SH3] was fitted with Equation (1), taking into account the non-pseudo-first order conditions, allowing us to calculate the microscopic association rate constant (kon), the microscopic dissociation rate constant (koff) of the binding reaction and the equilibrium dissociation rate constant KD, such as koff/kon. To increase the reliability of the calculated KD, we resorted to directly obtaining a koff value through displacement experiments (Table 1), in which a preincubated complex of N-SH3 domain and dansylated C3G277–296 peptide (at the concentration of 0.5 and 2 µM, respectively) were rapidly mixed versus a high excess of nondansylated peptide (ranging from 20 to 40 µM). In agreement with the theory in [21], the observed rate constants were insensitive to displacer concentration. In all binding and displacement experiments conducted, traces were satisfactorily fitted with a single-exponential equation. (1) kobs=(kon^2∗(2−[NSH3])^2+koff^2+2konkoff(2+[NSH3]))^1/2
To further investigate the role of charges in the binding reaction between N-SH3 domain and C3G, we resorted to performing kinetic binding experiment at different pH conditions, at a range of pH between 5.0 and 9.0. The observed rate constants obtained at different pH conditions were fitted with Equation (1) (Figure 2, left), and the calculated kinetic parameters kon and koff (obtained from separated displacement experiments) are reported in Table 1.
Kinetic binding experiments were performed on a single-mixing SX-18 stopped-flow instrument (Applied Photophysics), by mixing a constant concentration (0.5 μM) of C3G dansylated versus increasing concentrations of N-SH3 at 10 °C. Ionic strength dependence of wt N-SH3 was performed with concentrations ranging from 1 to 5 µM for 0 M NaCl condition and from 0.5 to 5 µM for 0.15 M, 0.3 M, 0.5 M and 1 M NaCl, buffer Hepes 50 mM pH 7.0. The excitation wavelength was 280 nm, and fluorescence was collected using a 455 nm cut-off filter. At least, five independent acquisitions were collected and averaged for each experiment. […]

Compound: CC(C)C[C@H](NC(=O)[C@H](C)NC(=O)[C@@H]1CCCN1C(=O)[C@@H]1CCCN1C(=O)[C@@H]1CCCN1C(=O)[C@H](CO)NC(=O)[C@H](CC(N)=O)NC(=O)[C@H](CC(=O)O)NC(=O)[C@@H](NC(=O)[C@@H](NS(=O)(=O)c1cccc2c(N(C)C)cccc12)C(C)C)C(C)C)C(=O)N1CCC[C@H]1C(=O)N1CCC[C@H]1C(=O)N[C@@H](CCCCN)C(=O)N[C@@H](CCCCN)C(=O)N[C@@H](CCCNC(=N)N)C(=O)N[C@@H](CCC(N)=O)C(=O)N[C@@H](CO)C(=O)N[C@@H](C)C(=O)N1CCC[C@H]1C(=O)N[C@@H](CO)C(=O)O [C3G277–296] (Dansyl-VVDNSPPPALPPKKRQSAPS-OH)
- kon (pH 5, pH 5.0 (50 mM Sodium Acetate), 0.5 M NaCl, 0.5 µM dansylated peptide vs 4.0–8.0 µM N-SH3): 4.4e+07 ± 1.5e+07 M⁻¹ s⁻¹
- kon (pH 5.5, pH 5.5 (50 mM Sodium Acetate), 0.5 M NaCl, 0.5 µM dansylated peptide vs 2.0–7.0 µM N-SH3): 3.7e+07 ± 3e+06 M⁻¹ s⁻¹
- kon (pH 6.5, pH 6.5 (Bis–Tris 50 mM), 0.5 M NaCl, 0.5 µM dansylated peptide vs 0.5–5.0 µM N-SH3): 6.5e+07 ± 4e+06 M⁻¹ s⁻¹
- kon (pH 7, 0 M NaCl, Hepes 50 mM pH 7.0, 0.5 µM dansylated peptide vs 1–5 µM N-SH3, FRET, ex 280 nm, 455 nm cut-off, at least five acquisitions averaged): 1.3e+08 ± 7e+06 M⁻¹ s⁻¹
- kon (pH 7, 0.15 M NaCl, Hepes 50 mM pH 7.0, 0.5 µM dansylated peptide vs 0.5–5 µM N-SH3, FRET): 9.6e+07 ± 8e+06 M⁻¹ s⁻¹
- kon (pH 7, 0.3 M NaCl, Hepes 50 mM pH 7.0, 0.5 µM dansylated peptide vs 0.5–5 µM N-SH3, FRET): 8.3e+07 ± 7e+06 M⁻¹ s⁻¹
- kon (pH 7, 0.5 M NaCl (ionic strength series), Hepes 50 mM pH 7.0, 0.5 µM dansylated peptide vs 0.5–5 µM N-SH3, FRET): 5.1e+07 ± 4e+06 M⁻¹ s⁻¹
- kon (pH 7, 1.0 M NaCl, Hepes 50 mM pH 7.0, 0.5 µM dansylated peptide vs 0.5–5 µM N-SH3, FRET): 6.8e+07 ± 5e+06 M⁻¹ s⁻¹
- kon (pH 7, pH 7.0 (Hepes 50 mM), 0.5 M NaCl (pH series), 0.5 µM dansylated peptide vs 1.5–6.0 µM N-SH3): 5.2e+07 ± 5e+06 M⁻¹ s⁻¹
- kon (pH 7.5, pH 7.5 (Hepes 50 mM), 0.5 M NaCl, 0.5 µM dansylated peptide vs 0.5–5.0 µM N-SH3): 5.1e+07 ± 5e+06 M⁻¹ s⁻¹
- kon (pH 8, pH 8.0 (Tris–HCl 50 mM), 0.5 M NaCl, 0.5 µM dansylated peptide vs 1.5–6.0 µM N-SH3): 5.6e+07 ± 5e+06 M⁻¹ s⁻¹
- kon (pH 8.5, pH 8.5 (Tris–HCl 50 mM), 0.5 M NaCl, 0.5 µM dansylated peptide vs 1.5–6.0 µM N-SH3): 6.8e+07 ± 7e+06 M⁻¹ s⁻¹
- kon (pH 9, pH 9.0 (Tris–HCl 50 mM), 0.5 M NaCl, 0.5 µM dansylated peptide vs 1.5–6.0 µM N-SH3): 3.9e+07 ± 4e+06 M⁻¹ s⁻¹
